Results as given in patent publication US7153869B2, “Substituted amino acids as erythropoietin mimetics” (priority 1998, dated 2006).
Like-named read-outs stand apart in the source and are kept apart here.

Target: T1, EBP-Ig (N-terminal 225 amino acids of the human EPO receptor joined to an Ig heavy chain) (Homo sapiens, UniProt P19235)
T1 construct: Ig heavy chain (fusion partner); made in house; host or cells: NSO cells (secreted into conditioned media)
T1 sequence (P19235 25-250 limits assumed): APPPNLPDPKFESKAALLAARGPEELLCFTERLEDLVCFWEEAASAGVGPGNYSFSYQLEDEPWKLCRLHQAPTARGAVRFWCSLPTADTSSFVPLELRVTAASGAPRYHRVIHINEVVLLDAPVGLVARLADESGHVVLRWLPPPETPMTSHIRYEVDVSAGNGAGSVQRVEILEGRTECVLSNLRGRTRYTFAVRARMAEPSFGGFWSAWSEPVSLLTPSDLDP
Assay: Inhibition of [125I]EPO binding to immobilized EBP-Ig (EPO binding protein-Ig), scintillation Flash plate competition assay
Conditions: for IC30 μM (Inhibition of EPO binding to EBP-Ig): 0–500 μM test compound; for % inh @ 50 μM (Inhibition of EPO binding to EBP-Ig): 50 μM test compound, average % inhibition
Text: The interaction of biotin and streptavidin is frequently employed to capture and effectively immobilize reagents useful in assay protocols and has been employed here as a simple method to capture and immobilize EBP-Ig. EBP-Ig is initially randomly modified with an amine reactive derivative of biotin to produce biotinylated-EBP-Ig. Use of streptavidin coated plates allows the capture of the biotinylated EBP-Ig on the surface of a scintillant impregnated coated well (Flash plates, NEN-DuPont). […] The amount of light produced was quantified to estimate the amount of ligand binding. The specific assay format was suitable for the multi-well plate capacity of a Packard TopCount Microplate Scintillation counter.
Biotinylated EBP-Ig was prepared as follows. EBP-Ig (3 mL, OD280 2.9) was exchanged into 50 mM sodium bicarbonate, pH 8.5 using a Centriprep 10 ultrafiltration device. The final volume of the exchanged protein was 1.2 mL (OD280 2.6, representing about 2 mg total protein). 10 μL of a 4 mg/ml solution of NHS-LC-Biotin (Pierce) was added and the reaction mixture placed on ice in the dark for two hours. Unreacted biotin was removed by exchange of the reaction buffer into PBS in a Centriprep 10 device and the protein reagent aliquoted and stored at −70° C.
All wells were adjusted to a final DMSO concentration of 5%. […] After all additions were made, the plate was covered with an adhesive top seal and placed in the dark at room temperature overnight. The next day all liquid was aspirated from the wells to limit analyte dependent quench of the signal, and the plates were counted on a Packard TOPCOUNT Microplate Scintillation Counter. […] Corrected total binding (CTB) was calculated as: TB−NSB=CTB. […] Table 1 lists the average % inhibition, and if determined the IC50 and IC30 values for compounds of Formula I, where the compound numbers refer to the compounds in the tables accompanying the preparative examples.

[1] = read-out: IC50, μM (Inhibition of EPO binding to EBP-Ig), 0.5 nM [125I]EPO, concentration reducing corrected total binding to 50%
[2] = read-out: % inh @ 50 μM (Inhibition of EPO binding to EBP-Ig)
[3] = read-out: EPO/EBP-Ig % inh @ 50 μM, 50 μM compound, Table 10
[4] = read-out: EPO/EBP-Ig % inh @ 50 μM, Table 11, 50 μM

Compound	IC30 μM (Inhibition of EPO binding to EBP-Ig) (0.5 nM [125I]EPO) [µM]	EPO/EBP-Ig % inh @ 50 μM (50 μM compound, Table 10) [%]	% inh @ 50 μM (Inhibition of EPO binding to EBP-Ig) (0.5 nM [125I]EPO) [%]	IC50 [1] [µM]	further results
COc1ccc(CCNC(=O)C(CCCCN)N(C/C=C/c2ccccc2)C/C=C/c2ccccc2)cc1OC (stereo not drawn) [compound 221]	10	48	48	80	
COc1cccc(CCNC(=O)C(CCCCN)N(C/C=C/c2ccccc2)C/C=C/c2ccccc2)c1 (stereo not drawn) [compound 222]	5	56	56		
COc1ccccc1CCNC(=O)C(CCCCN)N(CC=Cc1ccccc1)CC=Cc1ccccc1 (stereo not drawn) [compound 224]	25			50	inhibition at 50 µM [2]: 51%; inhibition at 50 µM [3]: 51%
COc1ccc(CCNC(=O)C(CCCCNC(=O)OC(C)(C)C)N(C/C=C/c2cccc(Oc3ccccc3)c2)C/C=C/c2cccc(Oc3ccccc3)c2)cc1 (stereo not drawn) [compound 225]		10			
NCCCCC(C(=O)NCCc1ccccc1)N(CC=Cc1ccccc1)CC=Cc1ccccc1 (stereo not drawn) [compound 227]	20			50	inhibition at 50 µM [2]: 48%; inhibition at 50 µM [3]: 48%
COc1ccc(CCNC(=O)C(CCCCNC(=O)Nc2ccccc2)N(C/C=C/c2cccc(Oc3ccccc3)c2)C/C=C/c2cccc(Oc3ccccc3)c2)cc1 (stereo not drawn) [compound 228]		21			
COc1ccc(CCNC(=O)C(CCCCNC(=O)Nc2ccc(Oc3ccccc3)cc2)N(C/C=C/c2ccccc2)C/C=C/c2ccccc2)cc1 (stereo not drawn) [compound 229]		22			
COc1ccc(CCNC(=O)C(CCCCNC(=O)Nc2ccc(Cl)c(Cl)c2)N(C/C=C/c2ccccc2)C/C=C/c2ccccc2)cc1 (stereo not drawn) [compound 230]		42	42		
CCOC(=O)c1ccc(NC(=O)NCCCCC(C(=O)NCCc2ccc(OC)cc2)N(C/C=C/c2ccccc2)C/C=C/c2ccccc2)cc1 (stereo not drawn) [compound 231]		36	36		
COc1ccc(CCNC(=O)C(CCCCNC(=O)Nc2ccc(Oc3ccccc3)cc2)N(C/C=C/c2cccc(Oc3ccccc3)c2)C/C=C/c2cccc(Oc3ccccc3)c2)cc1 (stereo not drawn) [compound 232]		14			
COc1cccc(CCNC(=O)C(CCCCN)N(C/C=C/c2ccc([N+](=O)[O-])cc2)C/C=C/c2ccc([N+](=O)[O-])cc2)c1 (stereo not drawn) [compound 233]		18			
NCCCCC(C(=O)NCc1ccccc1)N(CC=Cc1ccccc1)CC=Cc1ccccc1 (stereo not drawn) [compound 235]	20			50	inhibition at 50 µM [2]: 49%; inhibition at 50 µM [3]: 49%
COc1cccc(CCNC(=O)C(CCCCNC(=O)CCC(=O)O)N(CC=Cc2ccccc2)CC=Cc2ccccc2)c1 (stereo not drawn) [compound 237]	30			70	inhibition at 50 µM [2]: 55%; inhibition at 50 µM [3]: 55%
COc1ccc(CCNC(=O)C(CCCCN)N(C/C=C/c2ccc(-c3ccccc3)cc2)C/C=C/c2ccc(-c3ccccc3)cc2)cc1 (stereo not drawn) [compound 238]		39	39		
NCCCCC(C(=O)NCCc1ccccc1)N(C/C=C/c1cccc(Oc2ccccc2)c1)C/C=C/c1cccc(Oc2ccccc2)c1 (stereo not drawn) [compound 239]	8	46	46	50	
CC(C)(C)OC(=O)CC(C(=O)NCCCOCCCCOCCCNC(=O)C(CC(=O)OC(C)(C)C)N(Cc1ccc(OCc2ccccc2)cc1)Cc1ccc(OCc2ccccc2)cc1)N(Cc1ccc(OCc2ccccc2)cc1)Cc1ccc(OCc2ccccc2)cc1 (stereo not drawn) [compound 241]					EPO/EBP-Ig % inh @ 50 μM (Table 11, 50 μM): 2%
CC(C)(C)OC(=O)CC(C(=O)NCCCOCCOCCOCCCNC(=O)C(CC(=O)OC(C)(C)C)N(Cc1ccc(OCc2ccccc2)cc1)Cc1ccc(OCc2ccccc2)cc1)N(Cc1ccc(OCc2ccccc2)cc1)Cc1ccc(OCc2ccccc2)cc1 (stereo not drawn) [compound 242]					EPO/EBP-Ig % inh @ 50 μM (Table 11, 50 μM): 1%
O=C(O)CC(C(=O)NCCCOCCCCOCCCNC(=O)C(CC(=O)O)N(Cc1ccc(OCc2ccccc2)cc1)Cc1ccc(OCc2ccccc2)cc1)N(Cc1ccc(OCc2ccccc2)cc1)Cc1ccc(OCc2ccccc2)cc1 (stereo not drawn) [compound 243]	2				IC50: 18 µM; inhibition at 50 µM [2]: 75%; inhibition at 50 µM [4]: 75%
O=C(O)CC(C(=O)NCCCOCCOCCOCCCNC(=O)C(CC(=O)O)N(Cc1ccc(OCc2ccccc2)cc1)Cc1ccc(OCc2ccccc2)cc1)N(Cc1ccc(OCc2ccccc2)cc1)Cc1ccc(OCc2ccccc2)cc1 (stereo not drawn) [compound 244]	1				IC50: 28 µM; inhibition at 50 µM [2]: 66%; inhibition at 50 µM [4]: 66%
O=C(O)CCC(C(=O)NCCOCCOCCNC(=O)C(CCC(=O)O)N(Cc1cccc(NC(=O)c2ccco2)c1)Cc1cccc(Oc2ccccc2)c1)N(Cc1cccc(NC(=O)c2ccco2)c1)Cc1cccc(Oc2ccccc2)c1 (stereo not drawn) [compound 248]	7		56	20	EPO/EBP-Ig % inh @ 50 μM (Table 11, 50 μM): 56%
Cc1ccc(C(=O)Nc2cccc(CN(Cc3cccc(Oc4ccccc4)c3)C(CCC(=O)O)C(=O)NCCOCCOCCNC(=O)C(CCC(=O)O)N(Cc3cccc(NC(=O)c4ccc(C)cc4)c3)Cc3cccc(Oc4ccccc4)c3)c2)cc1 (stereo not drawn) [compound 249]	7		72	10	EPO/EBP-Ig % inh @ 50 μM (Table 11, 50 μM): 72%
Cc1ccc(S(=O)(=O)Nc2cccc(CN(Cc3cccc(Oc4ccccc4)c3)C(CCC(=O)O)C(=O)NCCOCCOCCNC(=O)C(CCC(=O)O)N(Cc3cccc(NS(=O)(=O)c4ccc(C)cc4)c3)Cc3cccc(Oc4ccccc4)c3)c2)cc1 (stereo not drawn) [compound 250]	7				IC50: 20 µM; inhibition at 50 µM [2]: 78%; inhibition at 50 µM [4]: 78%
O=C(O)CCC(C(=O)NCCOCCOCCNC(=O)C(CCC(=O)O)N(CC=Cc1ccccc1)CC=Cc1ccccc1)N(CC=Cc1ccccc1)CC=Cc1ccccc1 (stereo not drawn) [compound 251]	10		49	45	EPO/EBP-Ig % inh @ 50 μM (50 μM compound, Table 12): 49%
CC(C)(C)OC(=O)CC(C(=O)NCCCOCCCCOCCCNC(=O)C(CC(=O)OC(C)(C)C)N(C/C=C/c1cccc(Oc2ccc(C(C)(C)C)cc2)c1)C/C=C/c1cccc(Oc2ccc(C(C)(C)C)cc2)c1)N(C/C=C/c1cccc(Oc2ccc(C(C)(C)C)cc2)c1)C/C=C/c1cccc(Oc2ccc(C(C)(C)C)cc2)c1 (stereo not drawn) [compound 252]					EPO/EBP-Ig % inh @ 50 μM (50 μM compound, Table 12): −4%
CC(C)(C)OC(=O)CC(C(=O)NCCCOCCOCCOCCCNC(=O)C(CC(=O)OC(C)(C)C)N(C/C=C/c1cccc(Oc2ccc(C(C)(C)C)cc2)c1)C/C=C/c1cccc(Oc2ccc(C(C)(C)C)cc2)c1)N(C/C=C/c1cccc(Oc2ccc(C(C)(C)C)cc2)c1)C/C=C/c1cccc(Oc2ccc(C(C)(C)C)cc2)c1 (stereo not drawn) [compound 253]					EPO/EBP-Ig % inh @ 50 μM (50 μM compound, Table 12): −5%
CC(C)(C)OC(=O)CC(C(=O)NCCCCCCCCCCNC(=O)C(CC(=O)OC(C)(C)C)N(C/C=C/c1cccc(Oc2ccc(C(C)(C)C)cc2)c1)C/C=C/c1cccc(Oc2ccc(C(C)(C)C)cc2)c1)N(C/C=C/c1cccc(Oc2ccc(C(C)(C)C)cc2)c1)C/C=C/c1cccc(Oc2ccc(C(C)(C)C)cc2)c1 (stereo not drawn) [compound 254]					EPO/EBP-Ig % inh @ 50 μM (50 μM compound, Table 12): −9%
CC(C)(C)OC(=O)CC(C(=O)NCCCCCCCCCCCCNC(=O)C(CC(=O)OC(C)(C)C)N(C/C=C/c1cccc(Oc2ccc(C(C)(C)C)cc2)c1)C/C=C/c1cccc(Oc2ccc(C(C)(C)C)cc2)c1)N(C/C=C/c1cccc(Oc2ccc(C(C)(C)C)cc2)c1)C/C=C/c1cccc(Oc2ccc(C(C)(C)C)cc2)c1 (stereo not drawn) [compound 255]					EPO/EBP-Ig % inh @ 50 μM (50 μM compound, Table 12): 0%
CC(C)(C)OC(=O)CC(C(=O)NCCOCCOCCNC(=O)C(CC(=O)OC(C)(C)C)N(C/C=C/c1cccc(Oc2ccc(C(C)(C)C)cc2)c1)C/C=C/c1cccc(Oc2ccc(C(C)(C)C)cc2)c1)N(C/C=C/c1cccc(Oc2ccc(C(C)(C)C)cc2)c1)C/C=C/c1cccc(Oc2ccc(C(C)(C)C)cc2)c1 (stereo not drawn) [compound 256]					EPO/EBP-Ig % inh @ 50 μM (50 μM compound, Table 12): 10%
